In PubChem BioAssay AID2060615 (Molecular Pharmacology Branch, DTP, NCI, 2025):

System: 496974-208-R-J2-PDC complex spheroids, growth % test/control
Assay: Anticancer human tumor 496974-208-R-J2-PDC patient-derived pancreatic carcinoma cell line growth inhibition [CLK]
Conditions: for IC50: curve of first compound; for viability, T/C: stronger effect = lower value
Procedure, shortened: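 Patient-derived tumor cells grown as complex spheroids with HUVEC endothelial cells and mesenchymal stem cells, treated with drug combinations. Concentrations descend in half-log steps from near clinical Cmax, or from 10 microM if Cmax unknown.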

[1] = second compound 0.0316 µM, first compound 0.0316 µM
[2] = second compound 0.0316 µM, first compound 0.1 µM
[3] = second compound 0.0316 µM, first compound 0.316 µM
[4] = second compound 0.0316 µM, first compound 1 µM
[5] = second compound 0.0316 µM, first compound 3.16 µM
[6] = second compound 0.0316 µM, first compound 10 µM
[7] = second compound 0.1 µM, first compound 0.0316 µM
[8] = second compound 0.1 µM, first compound 0.1 µM
[9] = second compound 0.1 µM, first compound 0.316 µM
[10] = second compound 0.1 µM, first compound 1 µM
[11] = second compound 0.1 µM, first compound 3.16 µM
[12] = second compound 0.1 µM, first compound 10 µM
[13] = second compound 0.316 µM, first compound 0.0316 µM
[14] = second compound 0.316 µM, first compound 0.1 µM
[15] = second compound 0.316 µM, first compound 0.316 µM
[16] = second compound 0.316 µM, first compound 1 µM
[17] = second compound 0.316 µM, first compound 3.16 µM
[18] = second compound 0.316 µM, first compound 10 µM
[19] = second compound 1 µM, first compound 0.0316 µM
[20] = second compound 1 µM, first compound 0.1 µM
[21] = second compound 1 µM, first compound 0.316 µM
[22] = second compound 1 µM, first compound 1 µM
[23] = second compound 1 µM, first compound 3.16 µM
[24] = second compound 1 µM, first compound 10 µM
[25] = second compound 3.16 µM, first compound 0.0316 µM
[26] = second compound 3.16 µM, first compound 0.1 µM
[27] = second compound 3.16 µM, first compound 0.316 µM
[28] = second compound 3.16 µM, first compound 1 µM
[29] = second compound 3.16 µM, first compound 3.16 µM
[30] = second compound 3.16 µM, first compound 10 µM
[31] = second compound 10 µM, first compound 0.0316 µM
[32] = second compound 10 µM, first compound 0.1 µM
[33] = second compound 10 µM, first compound 0.316 µM
[34] = second compound 10 µM, first compound 1 µM
[35] = second compound 10 µM, first compound 3.16 µM
[36] = second compound 10 µM, first compound 10 µM
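Note: spheroids exposed to the drugs for 7 days before readout.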
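Throughout, for viability, T/C: 100% = DMSO vehicle control wells.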

## C#Cc1c(F)ccc2cc(O)cc(-c3ncc4c(N5CC6CCC(C5)N6)nc(OCC56CCCN5CC(F)C6)nc4c3F)c12 (centres undefined) + CN1CCN(c2cc(C(=O)Nc3cc4cc(-c5cnn(C)c5)ccc4cn3)ccn2)CC1
Second compound 0.0316 µM
  IC50: 0.0494 µM
Second compound 0.1 µM
  IC50: < 0.0316 µM
Second compound 0.316 µM
  IC50: < 0.0316 µM
Second compound 1 µM
  IC50: < 0.0316 µM
Second compound 3.16 µM
  IC50: < 0.0316 µM
Second compound 10 µM
  IC50: < 0.0316 µM
[1]
  viability, T/C: 54.9%
[2]
  viability, T/C: 41.2%
[3]
  viability, T/C: 39.9%
[4]
  viability, T/C: 37.2%
[5]
  viability, T/C: 33.5%
[6]
  viability, T/C: 35.1%
[7]
  viability, T/C: 37.7%
[8]
  viability, T/C: 34.7%
[9]
  viability, T/C: 30.2%
[10]
  viability, T/C: 25.8%
[11]
  viability, T/C: 25.2%
[12]
  viability, T/C: 22.8%
[13]
  viability, T/C: 6.34%
[14]
  viability, T/C: 7.18%
[15]
  viability, T/C: 5.55%
[16]
  viability, T/C: 5.05%
[17]
  viability, T/C: 4.85%
[18]
  viability, T/C: 4.28%
[19]
  viability, T/C: 0.24%
[20]
  viability, T/C: 1.36%
[21]
  viability, T/C: 0.31%
[22]
  viability, T/C: 0.34%
[23]
  viability, T/C: 0.22%
[24]
  viability, T/C: 0.33%
[25]
  viability, T/C: 0.26%
[26]
  viability, T/C: 1.39%
[27]
  viability, T/C: 0.4%
[28]
  viability, T/C: 0.27%
[29]
  viability, T/C: 0.23%
[30]
  viability, T/C: 1.06%
[31]
  viability, T/C: 0.28%
[32]
  viability, T/C: 0.2%
[33]
  viability, T/C: 0.22%
[34]
  viability, T/C: 0.2%
[35]
  viability, T/C: 0.21%
[36]
  viability, T/C: 1.87%

## CC1(C)CCC(CN2CCN(c3ccc(C(=O)NS(=O)(=O)c4ccc(NCC5CCOCC5)c([N+](=O)[O-])c4)c(Oc4cnc5[nH]ccc5c4)c3)CC2)=C(c2ccc(Cl)cc2)C1 + CN1CCN(c2cc(C(=O)Nc3cc4cc(-c5cnn(C)c5)ccc4cn3)ccn2)CC1
Second compound 0.0316 µM
  IC50: > 10 µM
Second compound 0.1 µM
  IC50: 8.06 µM
Second compound 0.316 µM
  IC50: < 0.0316 µM
Second compound 1 µM
  IC50: < 0.0316 µM
Second compound 3.16 µM
  IC50: < 0.0316 µM
Second compound 10 µM
  IC50: < 0.0316 µM
[1]
  viability, T/C: 93.7%
[2]
  viability, T/C: 95.9%
[3]
  viability, T/C: 101%
[4]
  viability, T/C: 104%
[5]
  viability, T/C: 92.1%
[6]
  viability, T/C: 50.8%
[7]
  viability, T/C: 80.3%
[8]
  viability, T/C: 77.9%
[9]
  viability, T/C: 86.7%
[10]
  viability, T/C: 87.7%
[11]
  viability, T/C: 84.9%
[12]
  viability, T/C: 42.3%
[13]
  viability, T/C: 5.92%
[14]
  viability, T/C: 5.59%
[15]
  viability, T/C: 5.97%
[16]
  viability, T/C: 6.42%
[17]
  viability, T/C: 3.9%
[18]
  viability, T/C: 5.66%
[19]
  viability, T/C: 0.75%
[20]
  viability, T/C: 0.68%
[21]
  viability, T/C: 0.5%
[22]
  viability, T/C: 0.5%
[23]
  viability, T/C: 0.63%
[24]
  viability, T/C: 2.1%
[25]
  viability, T/C: 0.5%
[26]
  viability, T/C: 0.74%
[27]
  viability, T/C: 0.43%
[28]
  viability, T/C: 0.7%
[29]
  viability, T/C: 0.52%
[30]
  viability, T/C: 3.57%
[31]
  viability, T/C: 0.25%
[32]
  viability, T/C: 1.16%
[33]
  viability, T/C: 0.37%
[34]
  viability, T/C: 0.34%
[35]
  viability, T/C: 0.32%
[36]
  viability, T/C: 2.82%
